According to patent US20160346324A1, “Method of Inactivating Bacterial Lipases Using Oxidative Chlorine Species” (NovaBay Pharmaceuticals, Inc., priority 2015, published 2016):
“Also recorded” adds a separate entry of the source.

Key:
Format in all cases: biochemical
[1] = tested on: Pseudomonas fluorescens lipase; assay: Lipase Activity Assay Kit III, Pseudomonas fluorescens lipase treated with HOCl; settings: one hour at 37° C.
Experimental: (§1) Lipases from Burkholderia cepacia, Pseudomonas fluorescens, Thermus thermophilus, Talaromyces flavus and Burkholderia species were obtained from Sigma (Catalog Numbers 62309, 28602, L3419, L3294 and 75577, respectively) and were diluted into sterile water for testing.
(§2) Alternative procedure: Activity of 0.01% HOCl in saline pH 4 against each lipase was determined as follows. 10 μL of 0.01% HOCl was added to 90 μL of 2 mg/mL lipase (final concentration of HOCl 0.001%). After one hour of incubation at 37° C., the lipase-HOCl solutions were diluted 500-fold into lipase buffer. Alternatively, 90 μL of 0.01% HOCl was added to 10 μL solution of 2 mg/mL lipase (final concentration of HOCl 0.009%) and after an hour of incubation at 37° C., the lipase-HOCl solutions were diluted 50-fold into lipase buffer. The lipase activity was determined using the Lipase Activity Assay Kit III (Sigma Aldrich®, St. Louis, Mo., USA).
(§3) Alternative procedure without a 10 minutes incubation: A SpectraMax® M5 Microplate Reader was used to continuously incubate the microtiter plate at 37° C. and measure the fluorescence ([…]=529/600 nm) every 5 minutes for 1.5 hours with no incubation period. The results are shown on FIG. 1. […]
(§4) Activity of lipases from Pseudomonas fluorescens, Thermusthermophilus, flavus and Burkholderia are determined using methods similar to the one described above for Burkholderia cepacia lipase. […]

[2] = molecular target: T1, Burkholderia cepacia lipase (Burkholderia cepacia, UniProt P22088); assay: Lipase Activity Assay Kit III, Burkholderia cepacia lipase treated with HOCl; settings: one hour at 37° C.
T1 construct: purchased Sigma 62309
Experimental: as §1
Activity of 0.01% HOCl in saline pH 4 against Burkholderia cepacia lipase was determined as follows. 0.01% HOCl was added to a solution of 2 mg/mL of Pseudomonas cepacia lipase (Sigma Aldrich®, St. Louis, Mo., USA). After an hour of incubation at 37° C., the lipase-HOCl solutions were diluted 500-fold into lipase buffer. The lipase activity was determined using the Lipase Activity Assay Kit III (Sigma Aldrich®, St. Louis, Mo., USA).
as §2
A SpectraMax® M5 Microplate Reader was used to continuously incubate the microtiter plate at 37° C. and measure the fluorescence ([…]=529/600 nm) every 5 minutes for 1.5 hours after an initial 10-minute incubation period. The results are shown on FIG. 1.
Alternative procedure without a 10 minutes incubation: A SpectraMax® M5 Microplate Reader was used to continuously incubate the microtiter plate at 37° C. and measure the fluorescence ([…]=529/600 nm) every 5 minutes for 1.5 hours with no incubation period. The results are shown on FIG. 1. […] The results are shown on FIGS. 1, 2, and 3. […] In the presence of 0.009% HOCl, all lipases were inactivated (FIGS. 2, 3).

lipase = assay: Lipase Activity Assay Kit III, lipase stock treated with equal part of test product versus sterile water; settings: 0.01% HOCl solution, 37° C. for 1 hour
Experimental: Merck describes a fluorimetric method where lipase activity is determined using a coupled enzyme reaction, which results in the generation of methylresorufin (lex=529/lem=600 nm) proportional to the enzymatic activity present. One unit of lipase is the amount of enzyme that will generate […] of methylresorufin from the substrate per minute at 37° C. (Lipase Activity Assay Kit III Catalog Number MAK048). The lipase stock was treated with equal part of the test product. The control consisted of equal parts of the lipase stock and sterile water. Both were incubated at 37° C. for 1 hour.
The Lipase Activity Assay Kit III (Sigma MAK048) consisted of materials for a standard, a positive control and background control. Once all the controls and the standard were set-up into a 96-well microtiter plate according to the provided instructions, 2 μL of the lipase treatments were diluted into 998 μL of the provided Lipase Assay Buffer. In the microtiter plate, 2 μL of this dilution was added to 48 μL of the Lipase Assay Buffer in quintuplicate. The reaction mix was added to every well except for the standard.
Using the SpectraMax M5, the plate was shaken and incubated for 3 minutes prior to reading the relative fluorescence units (RFU) at λex/λem=529/600 nm. Incubation was continued at 37° C. and the microtiter plate was read every 5 minutes for 1 hour with shaking prior to every reading.

[3] = tested on: Talaromyces flavus lipase; assay: Lipase Activity Assay Kit III, Talaromyces flavus lipase treated with HOCl; settings: one hour at 37° C.
Experimental: as §1, §2, §3, §4

[4] = 0.001% HOCl final concentration
[5] = 0.009% HOCl final concentration

T1 sequence (P22088 45-364): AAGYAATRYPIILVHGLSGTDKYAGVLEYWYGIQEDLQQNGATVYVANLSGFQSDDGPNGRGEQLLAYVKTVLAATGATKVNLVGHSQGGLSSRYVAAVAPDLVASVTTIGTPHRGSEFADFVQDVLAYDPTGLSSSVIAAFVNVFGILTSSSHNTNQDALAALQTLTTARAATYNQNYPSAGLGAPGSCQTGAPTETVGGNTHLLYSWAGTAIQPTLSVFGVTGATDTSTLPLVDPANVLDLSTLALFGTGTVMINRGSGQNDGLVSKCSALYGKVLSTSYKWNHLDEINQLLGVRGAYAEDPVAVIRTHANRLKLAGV

SMILES: OCl [HOCl, hypochlorous acid]
- inactivation of Pseudomonas fluorescens lipase [1, 4]: still active
- inactivation of Pseudomonas fluorescens lipase [1, 5]: inactivation; also recorded: inactivated
- inactivation of Burkholderia cepacia lipase [2, 4]: still active
- inactivation of Burkholderia cepacia lipase [2, 5]: inactivation; also recorded: inactivated
- inactivation of bacterial lipase (lipase activity, fluorescence) ([2]; 0.01% HOCl in saline pH 4, 2 mg/mL lipase): completely inactivated
- inactivation of lipase versus sterile water control (lipase): inactivates lipase
- inactivation of Talaromyces flavus lipase [3, 4]: inactivation; also recorded: completely inactivated
- inactivation of Talaromyces flavus lipase [3, 5]: inactivated
